Reference: ChEMBL document CHEMBL3046739, “Effects of imidacloprid on transmission of tomato spotted wilt tospovirus to pepper, tomato and tobacco by Frankliniella fusca Hinds (Thysanoptera: Thripidae)” (2001)
Calls of active or inactive are those of the source. The rule behind the calls is not given here.

What was measured:
Frankliniella fusca [1] = assay: (§1) Insecticidal activity against Frankliniella fusca assessed as reduction in tomato spotted wilt tospovirus transmission in compound pretreated pepper plant at 9.9 g a.i./1000 plants 60 days prior to 48 hr insect-infestation followed by foliar application at 7.1 g a.i./1000 plants measured after 21 days in green house conditions; type: functional; design: scale not given: the % may be the effect or the level left
Frankliniella fusca [2] = assay: Insecticidal activity against Frankliniella fusca assessed as effect on probing/feeding bout on pepper plants at 14.4 g a.i./1000 plants measured as duration of potential drops by electronic penetration graph analysis (reference value: 0.04 +/- 0.02 min); type: functional
Frankliniella fusca [3] = assay: Insecticidal activity against Frankliniella fusca assessed as effect on probing/feeding bout on pepper plants at 14.4 g a.i./1000 plants measured as number of potential drops by electronic penetration graph analysis (reference value: 0.28 +/- 0.03 /hr); type: functional
Frankliniella fusca [4] = assay: Insecticidal activity against Frankliniella fusca assessed as effect on probing/feeding bout on pepper plants at 7.1 g a.i./1000 plants measured as duration of potential drops by electronic penetration graph analysis (reference value: 0.01 +/- 0.01 min); type: functional
Frankliniella fusca [5] = assay: Insecticidal activity against Frankliniella fusca assessed as effect on probing/feeding bout on pepper plants at 7.1 g a.i./1000 plants measured as number of potential drops by electronic penetration graph analysis (reference value: 0.03 +/- 0.01 /hr); type: functional
Frankliniella fusca [6] = assay: Insecticidal activity against Frankliniella fusca assessed as effect on probing/feeding bout on mustard plants at 14.4 g a.i./1000 plants measured as duration of potential drops by electronic penetration graph analysis (reference value: 0.06 +/- 0.03 min); type: functional
Frankliniella fusca [7] = assay: Insecticidal activity against Frankliniella fusca assessed as effect on probing/feeding bout on mustard plants at 14.4 g a.i./1000 plants measured as number of potential drops by electronic penetration graph analysis (reference value: 0.2 +/- 0.09 /hr); type: functional
Frankliniella fusca [8] = assay: Insecticidal activity against Frankliniella fusca assessed as effect on probing/feeding bout on mustard plants at 7.1 g a.i./1000 plants measured as duration of potential drops by electronic penetration graph analysis (reference value: 1.28 +/- 0.15 min); type: functional
Frankliniella fusca [9] = assay: Insecticidal activity against Frankliniella fusca assessed as effect on probing/feeding bout on mustard plants at 7.1 g a.i./1000 plants measured as number of potential drops by electronic penetration graph analysis (reference value: 0.7 +/- 0.11 /hr); type: functional
Frankliniella fusca [10] = assay: Insecticidal activity against Frankliniella fusca immature thrips isolated from infected tobacco plants assessed reduction in tomato spotted wilt tospovirus transmission on petunia leaf by DAS-ELISA; type: functional; design: scale not given: the % may be the effect or the level left
Frankliniella fusca [11] = assay: Insecticidal activity against Frankliniella fusca assessed as reduction in number of thrips isolated per compound pre-treated tobacco plant infected with tomato spotted wilt tospovirus at 9.9 g a.i./1000 plants in green house conditions relative to control; type: functional, organism-based
Frankliniella fusca [12] = assay: as §1, with “as” for “as reduction in”, “pre-treated tobacco” for “pretreated pepper”, “conditions (reference value: 82.5 +/- 0.05%)” for “conditions”; type: functional
Frankliniella fusca [13] = assay: as §1, with “tomato” for “pepper”, “11.3” for “9.9”, “8” for “60”, “field” for “green house”; type: functional; design: scale not given: the % may be the effect or the level left
Frankliniella fusca [14] = assay: as §1, with “pre-treated tomato” for “pretreated pepper”; type: functional; design: scale not given: the % may be the effect or the level left
Frankliniella fusca [15] = assay: as §1, with “pre-treated” for “pretreated”, “11.3” for “9.9”, “8” for “60”, “field” for “green house”; type: functional; design: scale not given: the % may be the effect or the level left

## O=[N+]([O-])/N=C1\NCCN1Cc1ccc(Cl)nc1 [IMIDACLOPRID]
Frankliniella fusca [1]
  Activity: 74%
Frankliniella fusca [2]
  Time: 0.52 min
Frankliniella fusca [3]
  Activity: 1.84 h⁻¹
Frankliniella fusca [4]
  Time: 0.39 min
Frankliniella fusca [5]
  Activity: 1.53 h⁻¹
Frankliniella fusca [6]
  Time: 0.79 min
Frankliniella fusca [7]
  Activity: 1.53 h⁻¹
Frankliniella fusca [8]
  Time: 1.41 min
Frankliniella fusca [9]
  Activity: 2.12 h⁻¹
Frankliniella fusca [10]
  Activity: 6.4%
Frankliniella fusca [11]
  Activity: Active
Frankliniella fusca [12]
  Activity: 11.1%
Frankliniella fusca [13]
  Activity: 87%
Frankliniella fusca [14]
  Activity: 82%
Frankliniella fusca [15]
  Activity: 73%
